Test results as given in US20150011423A1, “MEANS AND METHODS FOR ASSESSING KIDNEY TOXICITY” (BASF SE, priority 2011, published 2015).
Several values for one entry are separate records, joined by “and”; a condition that tells them apart may be missing. Equal values may be shown once. Read-outs that look alike come from different tables or passages of the source. Marks after values point to notes of the source that are not given here.

Experiments:
[1] = system: rats; conditions: rat, in vivo
Method: (§1) A group of each 5 male and female rats was dosed once daily with the indicated compounds (see Table 9, below for compounds, applied doses and administration details) over 28 days.
(§2) Each dose group in the studies consisted of five rats per sex. Additional groups of each 5 male and female animals served as controls. Before starting the treatment period, animals, which were 62-64 days old when supplied, were acclimatized to the housing and environmental conditions for 7 days. All animals of the animal population were kept under the same constant temperature (20-24±3° C.) and the same constant humidity (30-70%). The animals of the animal population were fed ad libitum. The food to be used was essentially free of chemical or microbial contaminants. Drinking water was also offered ad libitum. […] The illumination period was 12 hours light followed by 12 hours darkness (12 hours light, from 6:00 to 18:00, and 12 hours darkness, from 18:00 to 6:00). […] The test substances (compounds in Table 9 were dosed and administered as described in the table above.
(§3) In the morning of day 7, 14, and 28, blood was taken from the retroorbital venous plexus from fasted anaesthetized animals. From each animal, 1 ml of blood was collected with EDTA as anticoagulant. The samples were centrifuged for generation of plasma. All plasma samples were covered with a N2 atmosphere and then stored at −80° C. until analysis.
(§4) For mass spectrometry-based metabolite profiling analyses plasma samples were extracted and a polar and a non-polar (lipid) fraction was obtained. For GC-MS analysis, the non-polar fraction was treated with methanol under acidic conditions to yield the fatty acid methyl esters. Both fractions were further derivatised with O-methyl-hydroxyamine hydrochloride and pyridine to convert Oxo-groups to O-methyloximes and subsequently with a silylating agent before analysis. In LC-MS analysis, both fractions were reconstituted in appropriate solvent mixtures. HPLC was performed by gradient elution on reversed phase separation columns.
(§5) Steroids and their metabolites were measured by online SPE-LC-MS (Solid phase extraction-LC-MS).
(§6) Following comprehensive analytical validation steps, the data for each analyte were normalized against data from pool samples. These samples were run in parallel through the whole process to account for process variability. The significance of treatment group values specific for sex, treatment duration and metabolite was determined by comparing means of the treated groups to the means of the respective untreated control groups using WELCH-test and quantified with treatment ratios versus control and p-values.

[2] = system: rats; assay: 28-day repeated dose study in rats with mass spectrometry-based plasma metabolite profiling (GC-MS, LC-MS, SPE-LC-MS); treatment ratios versus control; conditions: for 4-Hydroxy-3-methoxyphenylglycol (HMPG), treatment ratio versus control / Cysteine, treatment ratio versus control / Isopalmitic acid (C16:0), treatment ratio versus control / Metanephrine, treatment ratio versus control / Normetanephrine, treatment ratio versus control: Table 2d glomerular-tubular defect
Method: as §1, §2, §3, §4, §5, §6

[3] = plasma, male rats, day 7, high dose, Table 2c glomerular-tubular defect
[4] = plasma, male rats, day 7, high dose
[5] = plasma, male rats, day 14, high dose, Table 2c glomerular-tubular defect
[6] = plasma, male rats, day 14, high dose
[7] = plasma, male rats, day 28, high dose, Table 2c glomerular-tubular defect
[8] = plasma, male rats, day 28, high dose

In the case of `Cn1c(=O)c2c(ncn2C)n(C)c1=O` [Caffeine], the “Choline plasmalogen No 03, treatment ratio versus control” value [1] is reported as 1.25 *, the “Histidine, treatment ratio versus control” value [1] is reported as 1.29 * and the “Pantothenic acid, treatment ratio versus control” value [1] is reported as 1.23 *. For the same compound, the “Threonic acid, treatment ratio versus control” value [1] was 1.46 *, the “Threonine, treatment ratio versus control” value [1] was 1.58 * and the “Valine, treatment ratio versus control” value [1] was 1.15 *. For the same compound, the “trans-4-Hydroxyproline, treatment ratio versus control” value [1] was 1.23 *, the “18-Hydroxy-11-deoxycorticosterone, treatment ratio versus control” value ([2]; rat, in vivo) was 0.38 * and the “Choline plasmalogen No 03, treatment ratio versus control” value ([2]; rat, in vivo) was 1.55 * and 1.56 *. The “Creatinine, treatment ratio versus control” value ([2]; rat, in vivo) was 0.84 *, the “Glutamate, treatment ratio versus control” value ([2]; rat, in vivo) was 0.55 * and 0.65 * and 0.7 * and the “Glycine, treatment ratio versus control” value ([2]; rat, in vivo) was 1.5 *. The “Hippuric acid, treatment ratio versus control” value ([2]; rat, in vivo) was 0.38 *, the “Lysophosphatidylcholine (C20:4), treatment ratio versus control” value ([2]; rat, in vivo) was 0.85 * and 0.87 * and 0.89 * and the “Malate, treatment ratio versus control” value ([2]; rat, in vivo) was 0.61 * and 0.55 * and 0.54 *. The “Proline, treatment ratio versus control” value ([2]; rat, in vivo) was 1.23, the “Sphingomyelin (d18:2, C16:0), treatment ratio versus control” value ([2]; rat, in vivo) was 2.34* and the “Threonine, treatment ratio versus control” value ([2]; rat, in vivo) was 1.2 * and 1.59 *.

Tricresyl phosphate was tested, and the “Creatine, treatment ratio versus control” value [2, 3] was 1.16 *, the “Creatinine, treatment ratio versus control” value [2, 3] was 0.77^ and the “Glycerol-3-phosphate, polar fraction, treatment ratio versus control” value [2, 3] was 0.83 *. For the same compound, the “Lysophosphatidylcholine (C18:2), treatment ratio versus control” value [2, 3] was 1.19^, the “Threonic acid, treatment ratio versus control” value [2, 3] was 1.32 * and the “4-Hydroxy-3-methoxyphenylglycol (HMPG), treatment ratio versus control” value [2, 4] was 0.95^. The “Cysteine, treatment ratio versus control” value [2, 4] was 0.44 *, the “Isopalmitic acid (C16:0), treatment ratio versus control” value [2, 4] was 0.84 * and the “Metanephrine, treatment ratio versus control” value [2, 4] was 0.43 *. For the same compound, the “Normetanephrine, treatment ratio versus control” value [2, 4] was 0.74 *, the “Creatine, treatment ratio versus control” value [2, 5] was 1.42 * and the “Creatinine, treatment ratio versus control” value [2, 5] was 0.74^. For the same compound, the “Glycerol-3-phosphate, polar fraction, treatment ratio versus control” value [2, 5] was 0.89^, the “Lysophosphatidylcholine (C18:2), treatment ratio versus control” value [2, 5] was 1.27 * and the “Threonic acid, treatment ratio versus control” value [2, 5] was 1.5 *. For the same compound, the “4-Hydroxy-3-methoxyphenylglycol (HMPG), treatment ratio versus control” value [2, 6] was 0.93 *, the “Cysteine, treatment ratio versus control” value [2, 6] was 0.51 * and the “Isopalmitic acid (C16:0), treatment ratio versus control” value [2, 6] was 0.76 *. The “Metanephrine, treatment ratio versus control” value [2, 6] was 0.74 *, the “Normetanephrine, treatment ratio versus control” value [2, 6] was 0.71 * and the “Creatine, treatment ratio versus control” value [2, 7] was 1.11 *. For the same compound, the “Creatinine, treatment ratio versus control” value [2, 7] was 0.78 *, the “Glycerol-3-phosphate, polar fraction, treatment ratio versus control” value [2, 7] was 0.89^ and the “Lysophosphatidylcholine (C18:2), treatment ratio versus control” value [2, 7] was 1.15 *. For the same compound, the “Threonic acid, treatment ratio versus control” value [2, 7] was 1.53 *, the “4-Hydroxy-3-methoxyphenylglycol (HMPG), treatment ratio versus control” value [2, 8] was 0.83 * and the “Cysteine, treatment ratio versus control” value [2, 8] was 0.55 *. The “Isopalmitic acid (C16:0), treatment ratio versus control” value [2, 8] was 0.62 *, the “Metanephrine, treatment ratio versus control” value [2, 8] was 0.76^ and the “Normetanephrine, treatment ratio versus control” value [2, 8] was 1.03^.
